Experimental data published in US20060084704A1, “Methods and compositions for enhancing degradation of nuclear receptor transcription factors and uses thereof” (priority 2004, published 2006).

Key:
[1] = system: LNCaP cells; assay: LNCaP growth assay (cell count); type: cell-based, human
Protocol: LNCaP cells express an endogenous mutant AR that is found in prostate cancer patients. This clinically relevant cell model was used to study JC9's effect in suppressing prostate cancer cell growth. Cells were plated at a density of 6.3×10^4 cells/well in 6-well tissue culture dishes. Two days later, the complete medium was aspired and 10% charcoal/dextran-treated (hormone depleted) serum-containing medium was added. Test compounds, JC9 and hydroxyflutamide (HF) were then added to the medium at a final concentration of 5 μM with or without 1 nM of DHT. For vehicle control, the same amount of DMSO was added. For the subsequent 5 days, the medium was aspired once per day, and fresh medium containing test compounds and/or DHT was added. At designated times, a portion of cells was harvested by trypsinization, and cell count was performed using a hemacytometer.

[2] = system: testosterone-induced hair growth suppression; assay: Androgen-induced alopecia model, hair re-growth in shaved mice; type: in vivo, C57BL/6J mice; settings: topical testosterone 1% in the morning, control solution in the afternoon, 20 days
Protocol: C57BL/6J mice were used in this animal model for hair loss and regrowth (Uno et al. (1990) J. Cutaneous Aging & Cosm. Derm., 1: 193, which is incorporated by reference in its entirety herein). Six-week-old male mice (6 to 7 animals per group) were shaved with an electric clipper, and then treated with a hair-removal cream for 1 to 2 minutes. […] One day after hair removal, a first group of animals each received 100 microliters of a 1% testosterone solution in ethanol, applied topically to the shaved area, once each morning for twenty consecutive days. A second group of animals each received 100 microliters of vehicle (ethanol) alone, applied topically to the shaved area, once each morning for twenty consecutive days. The first group of mice (testosterone-treated) were divided further into a control group and a treatment group. Also beginning one day after hair removal, each mouse in the control group received 100 microliters of a control solution (60% ethanol, 20% propylene glycol, and 20% water) and each mouse in the treatment group received 100 microliters of the test compound, JC9 (0.02% in the same 60% ethanol, 20% propylene glycol, and 20% water solution), applied topically to the shaved area, once each afternoon for twenty consecutive days. Hair re-growth in the shaved areas was observed and photographed at 12, 15, 18, 21, and 24 days after beginning of the topical treatments.

C[C@]12CCC(=O)C[C@@H]1CC[C@@H]1[C@@H]2CC[C@]2(C)[C@@H](O)CC[C@@H]12 [DHT, dihydrotestosterone]
LNCaP cell growth with DHT alone ([1]; 1 nM DHT, 4-5 days): up-regulated LNCaP cell growth

CC(C)(O)C(=O)Nc1ccc([N+](=O)[O-])c(C(F)(F)F)c1 [HF, hydroxyflutamide]
cell growth (cell number) in the presence of DHT ([1]; 5 μM, with 1 nM DHT, 5 days): moderate activity to repress DHT-stimulated cell growth | cell growth (cell number) ([1]; 5 μM, without DHT, 5-day incubation): dramatic growth suppressing effect, however, was not detected

C[C@]12CC[C@H]3[C@@H](CCC4=CC(=O)CC[C@@]43C)[C@@H]1CC[C@@H]2O [testosterone, reference compound]
hair re-growth in shaved areas [2]: little or no re-growth of hair
